This is an account of results in patent US20120202840A1, “Use of Flubendazole and Vinca Alkaloids for Treatment of Hematological Diseases” (priority 2009, published 2012).

Each structure is given as a SMILES string. Like-named read-outs stand apart in the source and are kept apart here.

Data set [1] concerns PPC-1 cells. Description: Microtubules in cultured cells (confocal microscopy). It is filed as cell-based. The following applies: PPC-1, 1.0 μM, 24 hours. The procedure:
(D) PPC-1 cells were treated with 1.0 μM flubendazole (i) or control (ii) for 24 h and stained with DAPI and an anti α-tubulin AlexaFluor 488 nm antibody. Images were captured using an Olympus Fluorview confocal microscope at room temperature. Representative confocal micrographs at 40× are shown.
PPC-1 cells (5.0×10^3) were seeded on glass cover slips in a 6 well plate overnight at 37° C. and then treated with 1.0 μM flubendazole or vehicle control for 24 h. Cells were then fixed in 3.7% paraformeldehyde for 15 min at 37° C., permeabilized using 0.1% triton X-100 for 4 min at room temperature, and incubated at 4° C. overnight in a humidified chamber with a blocking solution (0.5% BSA). Cells were then incubated with a primary mouse anti α-tubulin antibody (clone DMIA, 1:300, in 0.5% BSA; Sigma) for 1 hour at 37° C., washed 3 times in PBS and subsequently incubated with a goat anti-mouse IgG, AlexaFluor 488 secondary antibody (1:500, Sigma) for 1 hour in the dark at room temperature. Cells were then washed, stained with 4′,6-diamidino-2-phenylindole (DAPI) and mounted on a microscope slide using Dakocytomation fluorescent mounting media (Dakocytamation, Carpinteria, Calif.). Slides were imaged using the Olympus Fluoview FV1000 Laser Scanning Confocal Microscope (Olympus America Inc., Center Valley, Pa.) at room temperature at 40×.

Data set [2] has as its system Primary AML cell samples. Nature of the data set: Methylcellulose colony forming assay. In kind it is cell-based, human. The following applies: primary AML samples (n=3), colonies counted 7 days after plating. The procedure:
(C) Primary AML cell samples (n=3) were plated in a methylcellulose colony forming assay with increasing concentrations of flubendazole. Colonies were counted 7 days after plating and normalized to cultures treated with buffer alone. Data represent the mean±SD from 3 independent experiments performed in duplicate.
Primary human acute myeloid leukemia (AML) samples were isolated from the peripheral blood of consenting AML patients, who had at least 80% malignant cells among the mononuclear cells in their peripheral blood and cultured at 37° C. in IMDM, 10% fetal calf serum, 100 units/mL of streptomycin and 100 μg/mL of penicillin. The collection and use of human tissue for this study was approved by the local ethics review board (University Health Network, Toronto, ON, Canada).

Data set [3] has as its system bovine tubulin. Nature of the data set: Tubulin polymerization assay. The following applies: cell-free, bovine tubulin 1.8 mg/ml; flubendazole 100 μM. It is filed as biochemical. Here is the method: (§1) A representative figure is shown.
Polymerization of bovine tubulin was measured according to Beyer et al^28. Briefly, bovine tubulin (1.8 mg/ml; Cytoskeleton; Denver, USA) was added to ice cold polymerization buffer (PEM; 80 mM PIPES, 0.5 mM EGTA, 2 mM MgCl2, 10% glycerol and 1 mM GTP) and centrifuged at top speed in a microcentrifuge for 5 min at 4° C. […] Following addition of tubulin, the plate was immediately placed in the spectrophotometer, which was maintained at 37° C., and the absorbance measured every 3 minutes for 2.5 h at 340 nm.

For data set [4], the system named is bovine tubulin. Description: Site of binding to tubulin (colchicine-tubulin fluorescence). The following applies: tubulin 5.0 μM, 100 μM drug 30 min, then colchicine 10 μM 60 min. The procedure:
(C) Tubulin (5.0 μM) was incubated for 30 min with 100 μM vinblastine, 100 μM flubendazole, or buffer control. […] A representative figure is shown.
The site of flubendazole binding was determined similar to Gupta et al^19. Bovine tubulin (5.0 μM) was incubated with 100 μM flubendazole, 100 μM vinblastine or buffer control for 30 min at 37° C.

Data set [5] deals with KB-3-1. Nature of the data set: MTS assay, KB-3-1 wild type. It is filed as cell-based. The following applies: Homo sapiens; KB-3-1, MTS assay, 3 replicates. The procedure:
Next, whether microtubule inhibition was functionally important for flubendazole's cytotoxicity was determined.
Leukemia (U937, MDAY, CEM, CEM-VBL) and solid tumor cell lines (PPC-1, HeLa) were cultured in RPMI 1640 medium. The epidermoid carcinoma cell lines KB-3-1 and KB-4.0-HTI^23 were grown in Dulbecco's Modified Eagle Medium. The lung carcinoma cell lines A549 and A549.EpoB40 were grown in RPMI with the latter supplemented with 20% fetal calf serum (FCS), and 40 nM epothilone B.^24 Leukemia cell lines OCI-AML2, CEM, and NB4 and all the myeloma cell lines (OPM2, KMS11, JJN3 LP1, H929, L1, KMS12, KSM18 and OCI My5) were maintained in Iscove's Modified Dulbecco's Medium (IMDM). TEX cells were maintained in IMDM, 15% FCS, 1% penicillin-streptomycin, 2 mM L-glutamine, 20 ng/mL SCF, 2 ng/mL IL-3. Unless otherwise noted, all media were supplemented with 10% FCS, 100 units/mL of streptomycin and 100 μg/mL of penicillin (all from Hyclone, Logan, Utah). Cells were incubated in a humidified air atmosphere containing 5% CO2 at 37° C.
Cell growth and viability was measured using the 3-(4,5-dimethylthiazol-2-yl)-5-(3-carboxymethoxyphenyl)-2-(4-sulfophenyl)-2H-tetrazolium inner salt (MTS) reduction assay (Promega, Madison, Wis.) according to the manufacture's protocol and as previously described^25. […] Optical density (OD) was measured at 490 nm.
Background: Tetrazolium assays rely on reduction of a dye to a coloured formazan, in cell work by metabolically active cells.

Data set [6] relates to U937 leukemia cells. Nature of the data set: Analysis of gene expression (Affymetrix arrays). In kind it is cell-based. The following applies: 1.0 μM, 4 hours. Here is the method: Briefly, total RNA was harvested from treated and untreated cells and hybridized to Affymetrix HG U133 Plus 2.0 gene expression oligonucleotide arrays (Affymetrix, Santa Clara, Calif., USA). Labeling and hybridization to arrays were performed by The Centre for Applied Genomics (Medical and Related Sciences Centre, Toronto, ON, Canada). Microarray data were analyzed using GeneSpring GX v10.0 (Agilent), and genes deregulated >4-fold after 4 hours flubendazole treatment were identified. Pathways and gene ontology analyses were carried out using Ingenuity Pathways Analysis (www.ingenuity.com) and the Database for Annotation, Visualization and Integrated Discovery (DAVID; http://david.abcc.ncifcrf.gov). Connectivity Map analysis, which compares the changes in gene expression signature following flubendazole treatment with gene expression signatures following treatment with other common pharmacological agents, was also performed (http://www.broadinstitute.org/cmap).

For data set [7] the following is noted: rats, mice and guinea-pigs, cited from earlier work.
Data set [8] deals with bovine tubulin. Nature of the data set: Measurement of tubulin sulfhydryl groups (DTNB). In kind it is biochemical. The following applies: flubendazole 100 μM, vinblastine 10 μM. Here is the method: as §1
The ability of microtubule target drugs to alter tubulin structure was assessed by measuring the number of reactive cysteine residues using the sulfhydryl reagent 5,5′-Dithio-bis(2-nitrobenzoic acid) (DTNB; Sigma) as previously described^19,29. […] After incubation, DTNB was added (100 μM final concentration) and the absorbance was measured in a 1 cm path length cuvette at 412 nm for 60 min at 37° C. The number of sulfhydryl groups were determined by using a molar extinction coefficient for DTNB of 13 600 (M^−1, cm^−1).^29

As usually defined, the IC50 is the point on the concentration scale where inhibition reaches its midpoint. Higher therefore signals weaker potency in that assay. As usually defined, the LD50 is the dose at which mortality reaches 50%. For `COC(=O)Nc1nc2ccc(C(=O)c3ccc(F)cc3)cc2[nH]1` [flubendazole], the “microtubule architecture in intact cells” value in data set [1] was “disrupts the microtubule architecture”. For the same compound, the clonogenic growth entry in data set [2] was “reduced the clonogenic growth”. In addition, the “effect on tubulin polymerization / microtubule formation” value in data set [3] is listed as “inhibited tubulin polymerization”. The “colchicine fluorescence (colchicine binding to tubulin)” value in data set [4] is given as “decreased colchicine fluorescence”. Also, the IC50 in data set [5] is 1900 ± 1100 nM. For the same compound, the “number of genes deregulated >4 fold” value in data set [6] worked out at 196. For the same compound, the LD50 was above 400 mg/kg in data set [7] (intraperitoneal administration) and above 5000 mg/kg in data set [7] (oral administration). In addition, in data set [8], the “reduction in number of reactive cysteines compared to buffer control” value was 5.2±2.6.
